# Test results from patent publication EP3789378A1, “PIPERIDINES OR PIPERIDONES SUBSTITUTED WITH UREA AND HETEROARYL” (Grünenthal GmbH, priority 2019, dated 2021).
# Biological target: T1, h FPR2 (Homo sapiens, UniProt P25090)
# T1 construct: expressed in transfected cells
# T1 sequence (P25090 1-351): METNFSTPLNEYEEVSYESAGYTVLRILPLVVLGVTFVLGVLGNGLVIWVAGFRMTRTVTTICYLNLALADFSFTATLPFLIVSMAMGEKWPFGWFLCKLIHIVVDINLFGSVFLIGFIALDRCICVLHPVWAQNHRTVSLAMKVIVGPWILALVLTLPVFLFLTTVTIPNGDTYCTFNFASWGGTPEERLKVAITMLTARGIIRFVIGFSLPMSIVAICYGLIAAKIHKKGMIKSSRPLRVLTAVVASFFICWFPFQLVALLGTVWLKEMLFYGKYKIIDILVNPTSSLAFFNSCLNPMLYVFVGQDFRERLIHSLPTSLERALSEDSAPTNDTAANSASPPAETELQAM
# Test: Agonistic activity in hFPR2-Aq-CHO cells (FLIPR Calcium 5 fluorescence assay)
# Type: cell-based
# Conditions: 11 point half log dilution, final assay concentration from 10µM
# Method: After washing, the cells are plated at 10,000 cells per well in 40 µL complete medium in a 384-well sterile clear bottom black plate and incubated in a 5% CO2 incubator at 37°C for 18 hours. Plating media is removed from each well by decanting and gentle tapping before 30 µL of 0.5X Calcium 5 dye solution (0.5X FLIPR Calcium 5 dye (Molecular devices, R8186)); HBSS; 20mM HEPES; 2.5mM Probenecid; 0.025% Pluronic F-127; pH adjusted to 7.4) is added to each well and the plate is then incubated at 37°C for 30 minutes. For the assay the plate is equilibrated at room temperature for 10 minutes before placing it in the FLIPR. Compounds are dissolved in DMSO and serially diluted over an 11 point half log (3.16 fold) dilution (2 mM to 20 nM). Compounds are then diluted 1:50 in assay buffer (HBSS; 20mM HEPES; 2.5mM Probenecid; 0.05% gelatin; 0.1% BSA; pH adjusted to 7.4) just before performing the assay. Compounds are finally added to the respective wells of the cell plate (final assay concentration 10 µM to 100 pM) using the FLIPR (e.g. FLIPR-Tetra, Molecular Devices) and fluorescence readings are captured for 5 minutes. The increase in fluorescence from the basal reading in the presence of the compounds is compared with that of the control wells (wells having no compound) to calculate the activity of the compounds. The EC50 values of the compounds can be determined using e.g. Graph pad Prism software.
# Assay method for measuring agonistic activity of compounds in hFPR2-Aq-CHO cell
# Cryo-vial containing 6x10^6 cells (hFPR1-Gα15-CHO or hFPR2-Aq-CHO) was thawed in a 37°C water bath. Cells were suspended in 10ml of respective complete growth media (F12(1X)HAM media (Gibco; Cat#11765); 10% HI-FBS (Gibco; Cat#10082); 0.4 mg/ml Geneticin (Gibco; Cat#10131); 0.25 mg/ml Zeocin (Invitrogen; Cat#R25001)) in a 15ml centrifuge tube. The cell viability was checked with the help of Trypan Blue dye. Upon washing the cells, those were plated in a 384-well sterile clear bottom black plate (Greiner Bioone Cat# 781091) so that, each well contained 10,000 cells in 40µl complete growth media. The plate was incubated in a 5% CO2 incubator at 37°C for 18 hours. Before assay on the next day, the cell plating media was removed from each well of the plate by decanting and gentle tapping. 30µl of 0.5X Calcium 5 dye solution (0.5X FLIPR Calcium 5 dye (Molecular devices Cat# R8186); HBSS (Invitrogen; Cat#14025); 20mM HEPES (Sigma; Cat#H0887); 2.5mM Probenecid (Sigma; Cat#P8761); 0.025% Pluronic F-127 (Sigma; Cat#P2443); pH adjusted to 7.4) was added to each well. The plate was then incubated at 37°C for 30 minutes. Following which the plate was equilibrated at room temperature for 10 minutes before placing it in a 384 well FLIPR for assay. Compounds were dissolved in DMSO and serially diluted following 11 point half log (3.16 fold) dilution with a starting concentration of 2mM (Final assay concentration 10µM). Aliquots of above mentioned each dilution was mixed with assay buffer (HBSS (Invitrogen; Cat#14025); 20mM HEPES (Sigma; Cat#H0887); 2.5mM Probenecid (Sigma; Cat#P8761); 0.05% gelatin (Sigma; Cat#G1890); 0.1% BSA (Sigma; Cat#A3059); pH adjusted to 7.4) just before performing the assay. Compounds were added to the respective wells of the assay ready cell plate with the help of the FLIPR (FLIPR Tetra) and fluorescence readings were captured for 5 minutes to measure any agonistic response of the compounds. The increase in fluorescence readings from the basal reading in presence of the compounds were compared with that of the control wells (wells having no compound) to calculate the agonistic activity of the compounds. The EC50 values of the compounds were determined using the Graph pad Prism software.
row,SMILES,EC50 [nM]
1,"Cc1cc(NC(=O)N[C@@H]2CCN(c3ccnc(C)n3)C[C@H]2c2ccc(Cl)cn2)sn1 (relative stereo) [Ex-21, trans-1-[5-chloro-1'-(2-methyl-pyrimidin-4-yl)-1',2',3',4',5',6'-hexahydro-[2,3']bipyridinyl-4'-yl]-3-(3-methyl-isothiazol-5-yl)-urea]",7
2,"Cc1cc(NC(=O)N[C@@H]2CCN(c3ccc(F)cc3)C[C@H]2c2ccc(Cl)cn2)sn1 (relative stereo) [Ex-26, trans-1-[5-chloro-1'-(4-fluoro-phenyl)-1',2',3',4',5',6'-hexahydro-[2,3']bipyridinyl-4'-yl]-3-(3-methyl-isothiazol-5-yl)-urea]",1
3,"Cc1cc(NC(=O)N[C@@H]2CCN(c3ccnc(C(F)(F)F)n3)C[C@H]2c2ccc(Cl)cn2)sn1 (relative stereo) [Ex-28, trans-1-[5-chloro-1'-(2-trifluoromethyl-pyrimidin-4-yl)-1',2',3',4',5',6'-hexahydro-[2,3']bipyridinyl-4'-yl]-3-(3-methyl-isothiazol-5-yl)-urea]",17
4,"Cc1cc(N2CC[C@@H](NC(=O)Nc3cc(C)ns3)[C@H](c3ccc(Cl)cn3)C2)ncn1 (relative stereo) [Ex-31, trans-1-[5-chloro-1'-(6-methyl-pyrimidin-4-yl)-1',2',3',4',5',6'-hexahydro-[2,3']bipyridinyl-4'-yl]-3-(3-methyl-isothiazol-5-yl)-urea]",5
5,"Cc1cc(NC(=O)N[C@@H]2CCN(c3cccnn3)C[C@H]2c2ccc(Cl)cn2)sn1 (relative stereo) [Ex-32, trans-1-(5-chloro-1'-pyridazin-3-yl-1',2',3',4',5',6'-hexahydro-[2,3']bipyridinyl-4'-yl)-3-(3-methyl-isothiazol-5-yl)-urea]",3
6,"Cc1ccc(N2CC[C@@H](NC(=O)Nc3cc(C)ns3)[C@H](c3ccc(Cl)cn3)C2)nn1 (relative stereo) [Ex-33, trans-1-[5-chloro-1'-(6-methyl-pyridazin-3-yl)-1',2',3',4',5',6'-hexahydro-[2,3']bipyridinyl-4'-yl]-3-(3-methyl-isothiazol-5-yl)-urea]",11

# Results, then the compound that gave them:
row,EC50 [nM],SMILES
1,0.8,"Cc1cc(NC(=O)N[C@@H]2CCN(c3cnccn3)C[C@H]2c2ccc(Cl)cn2)sn1 (relative stereo) [Ex-19, trans-1-(5-chloro-1'-pyrazin-2-yl-1',2',3',4',5',6'-hexahydro-[2,3']bipyridinyl-4'-yl)-3-(3-methyl-isothiazol-5-yl)-urea]"
2,1,"COc1ccc([C@@H]2CN(c3ccc(F)cc3)CC[C@H]2NC(=O)Nc2cc(C)ns2)nc1 (relative stereo) [Ex-20, trans-1-[1'-(4-fluoro-phenyl)-5-methoxy-1',2',3',4',5',6'-hexahydro-[2,3']bipyridinyl-4'-yl]-3-(3-methyl-isothiazol-5-yl)-urea]"
3,6,"Cc1cc(NC(=O)N[C@@H]2CCN(c3cc(C(F)(F)F)ncn3)C[C@H]2c2ccc(Cl)cn2)sn1 (relative stereo) [Ex-27, trans-1-[5-chloro-1'-(6-trifluoromethyl-pyrimidin-4-yl)-1',2',3',4',5',6'-hexahydro-[2,3']bipyridinyl-4'-yl]-3-(3-methyl-isothiazol-5-yl)-urea]"

# Same assay, conditions: agonistic response at 0.1µM
row,activation at 0.1 µM [%],SMILES
1,28,"Cc1cc(CN2CC[C@@H](NC(=O)Nc3ccc(Cl)cc3)[C@H](c3ccc(Cl)cn3)C2)no1 (relative stereo) [Ex-23, trans-1-(4-chlorophenyl)-3-[3-(5-chloropyridin-2-yl)-1-[(5-methyl-1,2-oxazol-3-yl)methyl]piperidin-4-yl]urea]"
2,17,"COc1ccc([C@@H]2CN(c3ccncn3)C(=O)C[C@H]2NC(=O)Nc2ccc(Cl)cc2)nc1 (relative stereo) [Ex-25, trans-1-(4-chlorophenyl)-3-[5-(5-methoxypyridin-2-yl)-2-oxo-1-(pyrimidin-4-yl)piperidin-4-yl]urea]"
